# Assay results as given in BigSolDB 2.1.
compound,measurement,setting,value
C1CC1N1C2C3N(C4CC4)C1C1N(C4CC4)C(C(N1C1CC1)N3C1CC1)N2C1CC1,solubility (mole fraction),"in 1,1,2-trichloroethane, 278.15 K",0.00866
same,solubility (mole fraction),"in 1,1,2-trichloroethane, 283.15 K",0.00991
same,solubility (mole fraction),"in 1,1,2-trichloroethane, 288.15 K",0.0113
same,solubility (mole fraction),"in 1,1,2-trichloroethane, 293.15 K",0.0127
same,solubility (mole fraction),"in 1,1,2-trichloroethane, 298.15 K",0.0143
same,solubility (mole fraction),"in 1,1,2-trichloroethane, 303.15 K",0.0161
same,solubility (mole fraction),"in 1,1,2-trichloroethane, 308.15 K",0.0182
same,solubility (mole fraction),"in 1,1,2-trichloroethane, 313.15 K",0.0206
same,solubility (mole fraction),"in 1,1,2-trichloroethane, 318.15 K",0.0234
same,solubility (mole fraction),"in 1,2-dichloroethane, 278.15 K",0.00228
same,solubility (mole fraction),"in 1,2-dichloroethane, 283.15 K",0.00279
same,solubility (mole fraction),"in 1,2-dichloroethane, 288.15 K",0.00343
same,solubility (mole fraction),"in 1,2-dichloroethane, 293.15 K",0.00421
same,solubility (mole fraction),"in 1,2-dichloroethane, 298.15 K",0.00513
same,solubility (mole fraction),"in 1,2-dichloroethane, 303.15 K",0.00624
same,solubility (mole fraction),"in 1,2-dichloroethane, 308.15 K",0.00752
same,solubility (mole fraction),"in 1,2-dichloroethane, 313.15 K",0.00903
same,solubility (mole fraction),"in 1,2-dichloroethane, 318.15 K",0.0108
same,solubility (mole fraction),"in acetone, 278.15 K",0.000269
same,solubility (mole fraction),"in acetone, 283.15 K",0.000333
same,solubility (mole fraction),"in acetone, 288.15 K",0.000411
same,solubility (mole fraction),"in acetone, 293.15 K",0.000503
same,solubility (mole fraction),"in acetone, 298.15 K",0.000611
same,solubility (mole fraction),"in acetone, 303.15 K",0.000736
same,solubility (mole fraction),"in acetone, 308.15 K",0.000875
same,solubility (mole fraction),"in acetone, 313.15 K",0.00103
same,solubility (mole fraction),"in acetone, 318.15 K",0.0012
same,solubility (mole fraction),"in acetonitrile, 278.15 K",5.71e-05
same,solubility (mole fraction),"in acetonitrile, 283.15 K",6.68e-05
same,solubility (mole fraction),"in acetonitrile, 288.15 K",7.76e-05
same,solubility (mole fraction),"in acetonitrile, 293.15 K",8.91e-05
same,solubility (mole fraction),"in acetonitrile, 298.15 K",0.000101
same,solubility (mole fraction),"in acetonitrile, 303.15 K",0.000114
same,solubility (mole fraction),"in acetonitrile, 308.15 K",0.000128
same,solubility (mole fraction),"in acetonitrile, 313.15 K",0.000143
same,solubility (mole fraction),"in acetonitrile, 318.15 K",0.000159
same,solubility (mole fraction),"in chloroform, 278.15 K",0.0231
same,solubility (mole fraction),"in chloroform, 283.15 K",0.0263
same,solubility (mole fraction),"in chloroform, 288.15 K",0.0297
same,solubility (mole fraction),"in chloroform, 293.15 K",0.0332
same,solubility (mole fraction),"in chloroform, 298.15 K",0.0367
same,solubility (mole fraction),"in chloroform, 303.15 K",0.0405
same,solubility (mole fraction),"in chloroform, 308.15 K",0.0444
same,solubility (mole fraction),"in cyclohexane, 283.15 K",0.00931
same,solubility (mole fraction),"in cyclohexane, 288.15 K",0.0111
same,solubility (mole fraction),"in cyclohexane, 293.15 K",0.0132
same,solubility (mole fraction),"in cyclohexane, 298.15 K",0.0157
same,solubility (mole fraction),"in cyclohexane, 303.15 K",0.0186
same,solubility (mole fraction),"in cyclohexane, 308.15 K",0.0218
same,solubility (mole fraction),"in cyclohexane, 313.15 K",0.0255
same,solubility (mole fraction),"in cyclohexane, 318.15 K",0.0297
same,solubility (mole fraction),"in dichloromethane, 278.15 K",0.0129
same,solubility (mole fraction),"in dichloromethane, 283.15 K",0.0147
same,solubility (mole fraction),"in dichloromethane, 288.15 K",0.0169
same,solubility (mole fraction),"in dichloromethane, 293.15 K",0.0194
same,solubility (mole fraction),"in dichloromethane, 298.15 K",0.0222
same,solubility (mole fraction),"in dichloromethane, 303.15 K",0.0255
same,solubility (mole fraction),"in dichloromethane, 308.15 K",0.0291
same,solubility (mole fraction),"in ethanol, 278.15 K",0.000225
same,solubility (mole fraction),"in ethanol, 283.15 K",0.000283
same,solubility (mole fraction),"in ethanol, 288.15 K",0.00036
same,solubility (mole fraction),"in ethanol, 293.15 K",0.000452
same,solubility (mole fraction),"in ethanol, 298.15 K",0.000557
same,solubility (mole fraction),"in ethanol, 303.15 K",0.000675
same,solubility (mole fraction),"in ethanol, 308.15 K",0.000805
same,solubility (mole fraction),"in ethanol, 313.15 K",0.000951
same,solubility (mole fraction),"in ethanol, 318.15 K",0.00111
same,solubility (mole fraction),"in ethyl acetate, 278.15 K",0.00121
same,solubility (mole fraction),"in ethyl acetate, 283.15 K",0.0014
same,solubility (mole fraction),"in ethyl acetate, 288.15 K",0.00168
same,solubility (mole fraction),"in ethyl acetate, 293.15 K",0.00204
same,solubility (mole fraction),"in ethyl acetate, 298.15 K",0.00249
same,solubility (mole fraction),"in ethyl acetate, 303.15 K",0.00305
same,solubility (mole fraction),"in ethyl acetate, 308.15 K",0.00373
same,solubility (mole fraction),"in ethyl acetate, 313.15 K",0.00455
same,solubility (mole fraction),"in ethyl acetate, 318.15 K",0.00552
same,solubility (mole fraction),"in methanol, 278.15 K",4.66e-05
same,solubility (mole fraction),"in methanol, 283.15 K",7.71e-05
same,solubility (mole fraction),"in methanol, 288.15 K",0.00011
same,solubility (mole fraction),"in methanol, 293.15 K",0.000144
same,solubility (mole fraction),"in methanol, 298.15 K",0.00018
same,solubility (mole fraction),"in methanol, 303.15 K",0.000219
same,solubility (mole fraction),"in methanol, 308.15 K",0.000259
same,solubility (mole fraction),"in methanol, 313.15 K",0.0003
same,solubility (mole fraction),"in methanol, 318.15 K",0.000341
same,solubility (mole fraction),"in n-hexane, 278.15 K",0.00406
same,solubility (mole fraction),"in n-hexane, 283.15 K",0.00447
same,solubility (mole fraction),"in n-hexane, 288.15 K",0.00507
same,solubility (mole fraction),"in n-hexane, 293.15 K",0.00588
same,solubility (mole fraction),"in n-hexane, 298.15 K",0.00692
same,solubility (mole fraction),"in n-hexane, 303.15 K",0.00819
same,solubility (mole fraction),"in n-hexane, 308.15 K",0.00973
same,solubility (mole fraction),"in n-hexane, 313.15 K",0.0116
same,solubility (mole fraction),"in n-hexane, 318.15 K",0.0138
same,solubility (mole fraction),"in tetrachloromethane, 278.15 K",0.0269
same,solubility (mole fraction),"in tetrachloromethane, 283.15 K",0.0298
same,solubility (mole fraction),"in tetrachloromethane, 288.15 K",0.0333
same,solubility (mole fraction),"in tetrachloromethane, 293.15 K",0.0372
same,solubility (mole fraction),"in tetrachloromethane, 298.15 K",0.0415
same,solubility (mole fraction),"in tetrachloromethane, 303.15 K",0.0461
same,solubility (mole fraction),"in tetrachloromethane, 308.15 K",0.0511
same,solubility (mole fraction),"in tetrachloromethane, 313.15 K",0.0568
same,solubility (mole fraction),"in tetrachloromethane, 318.15 K",0.0632
